ChEMBL document CHEMBL1156622, “1,3,4-Oxadiazole-3(2H)-carboxamide derivatives as potential novel class of monoamine oxidase (MAO) inhibitors: synthesis, evaluation, and role of urea moiety” (Bioorg Med Chem, 2008)

What was measured:
Rattus norvegicus [1] = species: Rattus norvegicus; test: Inhibition of Monoamine oxidase in rat brain mitochondria at 1 mM by kynuramine fluorimetric assay
Rattus norvegicus [2] = species: Rattus norvegicus; test: Inhibition of Monoamine oxidase in rat brain mitochondria at 0.1 mM by kynuramine fluorimetric assay
Rattus norvegicus [3] = species: Rattus norvegicus; test: Inhibition of Monoamine oxidase in rat brain mitochondria at 0.01 mM by kynuramine fluorimetric assay
Rattus norvegicus [4] = species: Rattus norvegicus; test: Inhibition of Monoamine oxidase in rat brain mitochondria at 0.008 mM by kynuramine fluorimetric assay
Rattus norvegicus [5] = species: Rattus norvegicus; test: Inhibition of Monoamine oxidase in rat brain mitochondria at 0.08 mM by kynuramine fluorimetric assay
Rattus norvegicus [6] = species: Rattus norvegicus; test: Inhibition of Monoamine oxidase in rat brain mitochondria at 0.8 mM by kynuramine fluorimetric assay

| Structure (SMILES) | inhibition (Rattus norvegicus [1]) | inhibition (Rattus norvegicus [2]) | inhibition (Rattus norvegicus [3]) | inhibition (Rattus norvegicus [4]) | inhibition (Rattus norvegicus [5]) | inhibition (Rattus norvegicus [6]) |
| --- | --- | --- | --- | --- | --- | --- |
| CCCCC1(CCCC)OC(c2ccc3c(c2)OCO3)=NN1C(=O)NC(=O)c1ccccc1Cl | 75.4% | 27.5% | 6.73% | – | – | – |
| CCCCC1(CCCC)OC(c2ccc(Cl)cc2)=NN1C(=O)NC(=O)c1c(F)cccc1F | 58.8% | 6.03% | 0% | – | – | – |
| CCCCC1(CCCC)OC(c2cc(C)cc(C)c2)=NN1C(=O)NC(=O)c1c(F)cccc1F | 69.2% | 26.2% | 5.85% | – | – | – |
| CCCCC1(CCCC)OC(c2ccc3c(c2)OCO3)=NN1C(=O)NC(=O)c1c(F)cccc1F | 78.4% | 41% | 8.37% | – | – | – |
| CCCCC1(CCCC)OC(c2cc(OC)c(OC)c(OC)c2)=NN1C(C)=O | – | – | – | 0% | 0% | 0% |
| CCCCC1(CCCC)OC(c2ccc(Cl)cc2Cl)=NN1C(=O)NC(=O)c1c(F)cccc1F | 72.5% | 25.1% | 5.43% | – | – | – |
| CCCCC1(CCCC)OC(c2ccco2)=NN1C(=O)NC(=O)c1c(F)cccc1F | 75.1% | 23.7% | 1.84% | – | – | – |
| CCCCC1(CCCC)OC(c2cc(C)cc(C)c2)=NN1C(=O)NC(=O)c1ccccc1Cl | 72.8% | 24.6% | 4.12% | – | – | – |
| CCCCC1(CCCC)OC(c2cc(OC)c(OC)c(OC)c2)=NN1C(=O)NC(=O)c1c(F)cccc1F | 69.2% | 21.7% | 0% | – | – | – |
| CCCCC1(CCCC)OC(c2cc(C)cc(C)c2)=NN1C(C)=O | – | – | – | 2.89% | 17.7% | 42.8% |
| CCCCC1(CCCC)OC(c2ccc3c(c2)OCO3)=NN1C(C)=O | – | – | – | 1.21% | 0% | 0% |
| CCCCC1(CCCC)OC(c2ccc(Cl)cc2Cl)=NN1C(=O)NC(=O)c1cc(F)c(OC)c(F)c1F | 81.8% | 25.9% | 2.92% | – | – | – |
| CCCCC1(CCCC)OC(c2ccc(Cl)cc2Cl)=NN1C(=O)NC(=O)c1ccccc1Cl | 78% | 24.9% | 5.86% | – | – | – |
